Key:
Assay type in all cases: binding
GRM5 = target: T1, GRM5 (Homo sapiens, UniProt P41594); assay: NanoBRET screen HiBiT-GRM5 in HEK293; conditions: GRM5
T1 construct: purchased Promega (in-house HiBiT-GPCR construct library, NanoBRET)
Protocol: (§1) Each tracer candidate was screened across the entire library of HiBiT-GPCR constructs using NanoBRET as the detection modality. As depicted in Figure 4A, the specificity of interactions was evaluated through decrease in BRET due to competitive displacement of a bound tracer by excess parental compound. Each tracer was analyzed for binding to each HiBiT-GPCR fusion in the absence and in the presence of competing parental compound. Briefly, HEK293 cells were transfected with HiBiT-GPCR constructs diluted into promoterless DNA to reduce expression and maximize translocation to the cell surface. Each tracer candidate was then screened at concentrations of 1 μM and 0.1 μM across cells expressing these fusions. Cells were treated for 1.5 h with tracer either alone or in the presence of 20 μM competing parental compound (i.e., control). BRET was measured upon addition of purified LgBiT and subsequent complementation with HiBiT genetically fused to a GPCR. The specificity of interactions was assessed through a decrease in BRET signal due to competitive displacement of the bound tracer. To further gauge the robustness of these interactions, the fold response over the control (i.e., BRETtracer/BRETcontrol) was calculated. We chose a 1.5-fold response, which translates to ≥7-fold signal over noise as the minimal threshold required to score an interaction as positive. […]. Below we highlight the screening results obtained for our exemplary fluorescent tracers based on Clozapine, Amitriptyline and AZD1283.
(§2) HiBiT-GPCR DNA constructs were diluted in 10 mM Tris pH 8 to a final concentration of 0.01 μg/μL, arrayed in 96-well plates and stored at −20 °C. For transfection, HEK293 cells were suspended in Opti-MEM (without phenol red) supplemented with 2% fetal bovine serum (Seradigm) and 100 units/mL penicillin–streptomycin (Gibco) at a final concentration of 220,000 cells/mL and dispensed into white 96-well plates at 90 μL/well. Subsequent transfections and screens were carried using an Agilent Bravo Automated Liquid Handling Platform. First, the 96-well HiBiT DNA arrays were diluted 25-fold in Opti-MEM (without serum or phenol red) to a final concentration of 0.0004 μg/μL and 20 μL of the diluted DNAs were transferred into new 96-well plates. Next, promoterless carrier DNA (1 μg/μL) was diluted 25-fold (0.04 μg/μL) and then dispensed into the diluted arrays at 20 μL/well. Following brief mixing, Viafect transfection reagent (Promega) diluted 16-fold into Opti-MEM was dispensed into the plates at 40 μL/well. After mixing by pipetting, plates were incubated for 10 min on the pipetting station deck. The DNA-transfection reagent complexes were then added to plates containing cells. To facilitate the screen, 10 μL of DNA-transfection reagent complexes were added in duplicates to the top 4 and bottom 4 rows, resulting in two identical 48-well arrays per plate. Plates with transfected cells were incubated for 18–20 h at 37 °C/5% CO2. A screen of each tracer across the entire library using two different concentrations requires duplicate plates of transfected cells. Depending on the number of tracers being screened, transfections can be scaled up using the same ratios. The next day, for each tracer, four 20× screening solutions in tracer dilution buffer (Promega) were prepared: two duplicates at final concentration of 20 μM and two duplicates at a final concentration of 2 μM. A competing unmodified compound was added to one of each duplicate at a final concentration of 400 μM. The four resulting solutions were diluted 4-fold in Opti-MEM without serum or phenol red to generate 5× solutions (5 µM and 0.5 µM tracer +/− 100 μM competing compound). To screen the library, a BioTek MultiFlo FX liquid dispenser was used to dispense 22.5 µL of tracer solution to the top 4 rows and 22.5 µL tracer + competing compound solution to the 4 bottom rows. Plates were briefly mixed on an orbital shaker and incubated for 1.5 h at room temperature. […]

GRM2 = target: T2, GRM2 (Homo sapiens, UniProt Q14416); assay: NanoBRET screen HiBiT-GRM2 in HEK293; conditions: GRM2
T2 construct: purchased Promega (in-house HiBiT-GPCR construct library, NanoBRET)
Protocol: as §1, §2

HRH3 = target: T3, HRH3 (Homo sapiens, UniProt Q9Y5N1); assay: NanoBRET screen HiBiT-HRH3 in HEK293
T3 construct: purchased Promega (in-house HiBiT-GPCR construct library, NanoBRET)
Protocol: as §1, §2

F2RL1 = target: T4, F2RL1 (Homo sapiens, UniProt P55085); assay: NanoBRET screen HiBiT-F2RL1 in HEK293
T4 construct: purchased Promega (in-house HiBiT-GPCR construct library, NanoBRET)
T4 sequence (P55085 26-397): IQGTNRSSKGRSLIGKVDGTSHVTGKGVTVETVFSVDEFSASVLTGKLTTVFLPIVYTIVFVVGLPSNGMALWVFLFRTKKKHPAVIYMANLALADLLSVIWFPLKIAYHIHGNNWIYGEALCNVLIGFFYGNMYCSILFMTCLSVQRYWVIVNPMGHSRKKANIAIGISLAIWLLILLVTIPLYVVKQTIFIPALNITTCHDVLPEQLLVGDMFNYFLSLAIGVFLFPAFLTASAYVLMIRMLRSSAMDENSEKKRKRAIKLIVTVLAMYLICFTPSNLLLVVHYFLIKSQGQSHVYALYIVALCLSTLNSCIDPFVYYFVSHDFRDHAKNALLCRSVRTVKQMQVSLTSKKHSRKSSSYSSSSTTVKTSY
Protocol: as §1, §2

HTR1D = target: T5, HTR1D (Homo sapiens, UniProt P28221); assay: NanoBRET screen HiBiT-HTR1D in HEK293
T5 construct: purchased Promega (in-house HiBiT-GPCR construct library, NanoBRET)
Protocol: as §1, §2

[1] = tracer at 0.1μM, listed as amitriptyline-b-2-NB590
[2] = tracer at 1μM, listed as amitriptyline-b-2-NB590

T5 sequence (P28221 whole entry): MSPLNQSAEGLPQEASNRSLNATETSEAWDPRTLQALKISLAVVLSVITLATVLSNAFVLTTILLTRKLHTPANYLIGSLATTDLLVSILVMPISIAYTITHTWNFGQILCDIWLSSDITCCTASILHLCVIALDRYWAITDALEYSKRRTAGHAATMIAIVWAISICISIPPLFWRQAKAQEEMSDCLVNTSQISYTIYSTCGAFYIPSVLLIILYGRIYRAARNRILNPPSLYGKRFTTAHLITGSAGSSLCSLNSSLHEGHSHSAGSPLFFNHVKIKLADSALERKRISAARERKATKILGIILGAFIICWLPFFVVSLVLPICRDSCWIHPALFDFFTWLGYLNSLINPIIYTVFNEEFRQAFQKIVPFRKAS
T1 sequence (P41594 21-1212): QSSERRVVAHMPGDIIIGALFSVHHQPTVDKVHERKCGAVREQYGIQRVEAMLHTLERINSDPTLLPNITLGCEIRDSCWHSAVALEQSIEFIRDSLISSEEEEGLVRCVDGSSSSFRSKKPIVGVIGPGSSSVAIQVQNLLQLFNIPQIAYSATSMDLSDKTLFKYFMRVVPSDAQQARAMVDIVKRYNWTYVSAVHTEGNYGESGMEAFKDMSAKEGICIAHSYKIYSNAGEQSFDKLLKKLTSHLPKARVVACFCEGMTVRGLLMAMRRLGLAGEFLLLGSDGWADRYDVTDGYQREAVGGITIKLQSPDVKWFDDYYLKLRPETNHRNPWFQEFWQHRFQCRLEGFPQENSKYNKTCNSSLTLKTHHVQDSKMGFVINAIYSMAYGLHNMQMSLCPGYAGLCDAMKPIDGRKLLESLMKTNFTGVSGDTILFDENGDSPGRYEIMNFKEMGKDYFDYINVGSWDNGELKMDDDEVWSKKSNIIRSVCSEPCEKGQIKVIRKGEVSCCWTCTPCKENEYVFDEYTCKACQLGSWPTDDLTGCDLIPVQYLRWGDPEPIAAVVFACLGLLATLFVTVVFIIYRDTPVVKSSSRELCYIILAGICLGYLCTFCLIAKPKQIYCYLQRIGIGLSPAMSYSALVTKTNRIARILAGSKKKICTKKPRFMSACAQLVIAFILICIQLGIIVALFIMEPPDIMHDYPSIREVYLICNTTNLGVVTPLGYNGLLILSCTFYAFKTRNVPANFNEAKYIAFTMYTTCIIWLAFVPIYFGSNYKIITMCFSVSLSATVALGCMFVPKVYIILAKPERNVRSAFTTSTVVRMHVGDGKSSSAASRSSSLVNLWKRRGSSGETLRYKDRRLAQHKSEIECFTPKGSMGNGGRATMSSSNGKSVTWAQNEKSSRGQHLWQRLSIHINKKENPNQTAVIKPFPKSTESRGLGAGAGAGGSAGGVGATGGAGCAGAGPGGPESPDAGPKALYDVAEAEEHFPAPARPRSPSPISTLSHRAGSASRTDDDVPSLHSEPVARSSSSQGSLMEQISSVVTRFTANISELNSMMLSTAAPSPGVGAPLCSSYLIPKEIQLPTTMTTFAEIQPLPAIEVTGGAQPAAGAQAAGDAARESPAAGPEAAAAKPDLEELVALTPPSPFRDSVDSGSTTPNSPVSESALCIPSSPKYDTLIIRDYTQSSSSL
T3 sequence (Q9Y5N1 whole entry): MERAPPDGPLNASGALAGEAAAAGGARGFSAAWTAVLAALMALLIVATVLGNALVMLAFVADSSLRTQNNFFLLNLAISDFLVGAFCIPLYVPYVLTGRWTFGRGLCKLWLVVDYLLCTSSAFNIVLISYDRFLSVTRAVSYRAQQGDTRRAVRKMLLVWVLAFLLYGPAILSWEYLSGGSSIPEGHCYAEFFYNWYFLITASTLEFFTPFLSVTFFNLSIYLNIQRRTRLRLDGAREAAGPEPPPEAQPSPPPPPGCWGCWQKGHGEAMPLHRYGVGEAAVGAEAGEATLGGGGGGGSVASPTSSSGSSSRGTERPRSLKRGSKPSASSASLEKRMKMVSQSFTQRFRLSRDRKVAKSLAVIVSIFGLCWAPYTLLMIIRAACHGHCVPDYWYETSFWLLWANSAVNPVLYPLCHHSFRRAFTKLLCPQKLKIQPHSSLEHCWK
T2 sequence (Q14416 19-872): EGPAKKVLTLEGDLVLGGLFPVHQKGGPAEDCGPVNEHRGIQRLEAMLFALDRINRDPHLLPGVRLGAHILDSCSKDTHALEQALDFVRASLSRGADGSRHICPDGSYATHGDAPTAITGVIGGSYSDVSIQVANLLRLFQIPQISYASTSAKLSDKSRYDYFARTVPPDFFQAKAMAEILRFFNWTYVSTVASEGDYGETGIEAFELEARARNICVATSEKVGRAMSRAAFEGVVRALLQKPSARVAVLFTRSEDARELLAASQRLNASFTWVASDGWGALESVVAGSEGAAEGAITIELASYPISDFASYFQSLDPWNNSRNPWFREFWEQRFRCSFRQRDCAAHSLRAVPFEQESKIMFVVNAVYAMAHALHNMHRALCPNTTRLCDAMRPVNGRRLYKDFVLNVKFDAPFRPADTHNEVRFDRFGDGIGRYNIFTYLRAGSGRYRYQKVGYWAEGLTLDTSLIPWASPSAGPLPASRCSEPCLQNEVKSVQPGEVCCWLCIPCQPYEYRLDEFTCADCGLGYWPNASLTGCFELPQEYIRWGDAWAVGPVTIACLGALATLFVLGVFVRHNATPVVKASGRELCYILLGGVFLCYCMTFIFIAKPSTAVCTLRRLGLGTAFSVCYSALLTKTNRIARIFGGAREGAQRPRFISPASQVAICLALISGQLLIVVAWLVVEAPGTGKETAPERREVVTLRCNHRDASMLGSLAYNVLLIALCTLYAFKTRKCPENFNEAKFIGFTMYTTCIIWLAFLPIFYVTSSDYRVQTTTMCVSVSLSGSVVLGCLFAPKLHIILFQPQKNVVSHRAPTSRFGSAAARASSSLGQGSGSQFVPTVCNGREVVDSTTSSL

| SMILES | NanoBRET Fold Response (GRM5; tracer 0.1μM) | NanoBRET Fold Response (GRM5; tracer 1μM) | NanoBRET Fold Response (GRM2; tracer 0.1μM) | NanoBRET Fold Response (GRM2; tracer 1μM) | NanoBRET Fold Response (HRH3; HRH3, tracer 0.1μM) | NanoBRET Fold Response (HRH3; HRH3, tracer 1μM) | NanoBRET Fold Response (F2RL1; F2RL1, tracer 0.1μM) | NanoBRET Fold Response (F2RL1; F2RL1, tracer 1μM) | NanoBRET Fold Response (HTR1D; HTR1D, tracer 0.1μM) | NanoBRET Fold Response (HTR1D; HTR1D, tracer 1μM) | NanoBRET Fold Response (HRH3; [1]) | NanoBRET Fold Response (HRH3; [2]) | NanoBRET Fold Response (F2RL1; [1]) | NanoBRET Fold Response (F2RL1; [2]) | NanoBRET Fold Response (HTR1D; [1]) | NanoBRET Fold Response (HTR1D; [2]) |
| --- | --- | --- | --- | --- | --- | --- | --- | --- | --- | --- | --- | --- | --- | --- | --- | --- |
| N#CN=C(NCCCOc1cccc(CN2CCCCC2)c1)NCCNC(=O)CCOCCOCCOCCOCCNC(=O)CCc1ccc2n1[B-](F)(F)[N+]1=C(c3ccc[nH]3)C=CC1=C2 [Aminopotentidine-2-NB590] | 1.01 | 0.98 | 1.05 | 0.99 | 2.54 | 2.06 | 1.03 | 0.99 | 1.40 | 1.21 |  |  |  |  |  |  |
| Cc1nc2n(c(=O)c1CCN1CCC(c3noc4cc(F)ccc34)CC1)CCCC2OC(=O)NCCOCCOCCOCCOCCNC(=O)CCc1ccc2n1[B-](F)(F)[N+]1=C(c3ccc[nH]3)C=CC1=C2 (stereo not drawn) [Risperidone-2-NB590] | 0.98 | 1.02 | 0.96 | 1.04 | 1.07 | 1.58 | 1.00 | 0.94 | 1.38 | 1.86 |  |  |  |  |  |  |
| CN(C)CCC=C1c2ccccc2CCc2ccc(C(=O)NCCNC(=O)CCOCCOCCOCCOCCNC(=O)CCc3ccc4n3[B-](F)(F)[N+]3=C(c5ccc[nH]5)C=CC3=C4)cc21 [Amitriptyline-b-2-NB590] | 1.05 | 1.02 | 0.97 | 0.98 |  |  |  |  |  |  | 1.62 | 1.31 | 1.10 | 1.00 | 1.43 | 0.74 |

From paper PMC8151276, “An Integrated Approach toward NanoBRET Tracers for Analysis of GPCR Ligand Engagement” (Molecules, 2021)
